Key:
[1] = system: uterus; test: Uterine wet weight in ovariectomized rats (Example 4); type: in vivo, Sprague-Dawley rat; details: 0.4 mg/kg/day each oral, 20 days
Description: (§3) Methods: Rats were ovariectomized at 97 days of age, and treatments began at 117 days of age. […] Rats were euthanized on day 21.

[2] = system: mammary tumor; details: cited from earlier work
[3] = system: uterine progesterone receptor; test: Uterine progesterone receptor in ovariectomized rats (Example 6, Table 6); type: in vivo, Sprague-Dawley rat; details: tamoxifen 0.4, 6-MCDF 0.8 mg/kg/day oral, 20 days
Description: (§1) Rats were euthanized on day 21.

[4] = Body and organ weights (Examples 4 and 5)
Protocol: as §3
For the control vehicle and the MCDF vehicle ethanol was added (5% v/v) and then evaporated away.

[5] = system: Ah receptor; details: result in words; cited from earlier work
[6] = system: ER; details: 21 to 25 day-old female Sprague-Dawley rat uterus; cited from earlier work
[7] = cited from earlier work
[8] = system: uterine peroxidase; test: Uterine peroxidase activity in ovariectomized rats (Example 6, Table 6); type: in vivo, Sprague-Dawley rat; details: tamoxifen 0.4, 6-MCDF 0.8 mg/kg/day oral, 20 days
Description: as §1

[9] = system: liver; details: result in words; cited from earlier work
[10] = system: mammary tumors; test: DMBA-induced rat mammary tumor model, tumor volume and weight; type: in vivo, Sprague-Dawley rat; details: 20 days
Protocol: Female virgin Sprague-Dawley rats were obtained from Harlan (Houston) and were allowed to acclimate for 10 days, allowed access to food and water ad libitum, and maintained on a 12 h light/dark schedule. Mammary tumors were induced in 50±3 day old-rats by administering a single gavage dose of 20 mg DMBA in 0.5 ml corn oil. […] Tumor sizes were measured with calipers, and volumes were calculated by formula (length×width×depth)/6π and are expressed as percent control. […] All tumors were removed, weighed, and sectioned. One portion was frozen in liquid nitrogen for PCR analysis; one portion was placed in 10% formalin for histopathological analysis; and the majority was immediately homogenized for the preparation of microsomal and cytosolic fractions. Livers were perfused and weighed, and cytosol and microsomes were prepared as previously described.

[11] = system: uterus; test: Uterine wet weight in ovariectomized rats (Example 6, Table 6); type: in vivo, Sprague-Dawley rat; details: tamoxifen 0.4, 6-MCDF 0.8 mg/kg/day oral, 20 days
Description: as §1

[12] = system: CYP1A1; details: result in words; cited from earlier work
[13] = system: uterine peroxidase; test: Uterine peroxidase assay in ovariectomized rats (Example 4); type: in vivo, Sprague-Dawley rat; details: 0.4 mg/kg/day each oral, 20 days
Description: as §1

[14] = Body and organ weights (Example 6, Table 7)
Protocol: For Table 7 and FIGS. 3 and 3B, exact aged virgin female Sprague-Dawley rats were dosed on day 55 in the afternoon with 20 mg/rat 7,12-dimethylbenz[a]anthacene in a volume of 0.5 ml/rat corn oil (rats weigh approximately 165 g, resulting in 120 mg/kg DMBA and 3 ml/kg corn oil).

[15] = system: PR; details: 21 to 25 day-old female Sprague-Dawley rat uterus; cited from earlier work
[16] = Body and organ weights in DMBA-treated rats
Protocol: (§2) Female virgin Sprague-Dawley rats were obtained from Harlan (Houston) and were allowed to acclimate for 10 days, allowed access to food and water ad libitum, and maintained on a 12 h light/dark schedule. Mammary tumors were induced in 50±3 day old-rats by administering a single gavage dose of 20 mg DMBA in 0.5 ml corn oil. […] Tumor sizes were measured with calipers, and volumes were calculated by formula (length×width×depth)/6π and are expressed as percent control. One week after their last injection, rats were euthanized by asphyxiation. All tumors were removed, weighed, and sectioned. One portion was frozen in liquid nitrogen for PCR analysis; one portion was placed in 10% formalin for histopathological analysis; and the majority was immediately homogenized for the preparation of microsomal and cytosolic fractions. Livers were perfused and weighed, and cytosol and microsomes were prepared as previously described.

[17] = system: uterine cytosolic PR; test: Uterine cytosolic PR levels in ovariectomized rats (Example 4); type: in vivo, Sprague-Dawley rat; details: 0.4 mg/kg/day each oral, 20 days
Description: as §1

[18] = system: CYP1A1; details: cited from earlier work
[19] = system: rat uterus; details: cited from earlier work
[20] = system: hepatic CYP1A1-dependent EROD activity; test: Hepatic EROD activity in DMBA-treated rats; details: 0.4 mg/kg/day each
Protocol: as §2

[21] = system: femurs; test: Bone effects in ovariectomized rats (femur weight and length); type: in vivo, Sprague-Dawley rat; details: tamoxifen 0.4, 6-MCDF 0.8 mg/kg/day oral, 20 days
Protocol: The ovariectomized rat is used as a model for osteoporosis.
Rats were euthanized on day 21. After uteri were excised and processed, both left and right femurs were excised and the length measured with calipers. […] Wet weight was measured after residual connective tissue was stripped away. Dry weight was measured after the bones were dried for 12 ours at 130° C.

[22] = each drug 0.4 mg/kg/day by gavage, DMBA rats

For `Cc1cc(Cl)cc2c1oc1cc(Cl)cc(Cl)c12` [6-MCDF, 6-methyl-1,3,8-trichlorodibenzofuran], the “Uterine Wet Weight (% body wt)” value ([1]; control 0.045 ± 0.002) is listed as 0.060 ± 0.006 % body wt, the “Uterine Wet Weight” value ([1]; control 0.131 ± 0.006) is listed as 0.180 ± 0.019 g and the growth inhibition ([2]; 5 mg/kg/wk) is listed as over 50%. For the same molecule, the mammary tumor growth ([2]; 5, 10 or 25 mg/kg/wk, result in words) was “significantly inhibited”, the “Uterine Progesterone Receptor (fmol/mg protein)” value ([3]; control 198 ± 15) was 152.9 ± 35 fmol/mg protein and the “Uterine Progesterone Receptor (fmol/uterus)” value ([3]; control 765 ± 69) was 441.5 ± 100 fmol/uterus. For the same molecule, the “Uterine Progesterone Receptor (fmol/g uterus)” value ([3]; control 4462 ± 343) was 3985 ± 907 fmol/g uterus, the splenic wet weight ([4]; 0.4 mg/kg/day oral, 20 days, ovariectomized rats, result in words) was “slight but significant increase” and the “Rat weight at start of treatments” value ([4]; Table 5, baseline, control 273.1 ± 8.1) was 274.7 ± 7.0 g. For the same molecule, the “Spleen wet weight (% body wt)” value ([4]; Table 5, control 0.247 ± 0.007) was 0.298 ± 0.015 % body wt, the “kidney weight (% body wt)” value ([4]; Table 5, control 0.318 ± 0.010) was 0.332 ± .004 % body wt and the “Heart weight (% body wt)” value ([4]; Table 5, control 0.319 ± 0.006) was 0.344 ± 0.014 % body wt. The “Spleen wet weight” value ([4]; Table 5, control 0.72O ± 0.012) was 0.887 ± 0.043 g, the “Kidney weight” value ([4]; Table 5, control 0.933 ± 0.038) was 0.991 ± 0.026 g and the “Heart weight” value ([4]; Table 5, control 0.935 ± 0.039) was 1.024 ± 0.037 g. For the same molecule, the “Liver weight (% body wt)” value ([4]; Table 5, control 4.06 ± 0.23) was 4.37 ± 0.26 % body wt, the “Liver weight” value ([4]; Table 5, control 11.88 ± 0.78) was 13.04 ± 0.87 g and the “Rat weight prior to euthanasia” value ([4]; Table 5, control 293.2 ± 10.9) was 298.3 ± 5.0 g. The “binding to the Ah receptor” value [5] was “bound to the Ah receptor”, the “nuclear and cytosolic ER binding” value [6] was “dose-dependent decrease” and the “effect on TCDD induced toxic responses” value ([7]; co-treatment with TCDD) was “inhibiter TCDD induced toxic responses”. For the same molecule, the toxicity ([7]; result in words) was “minimal toxicity”, the “Uterine Peroxidase Activity (Absorbance/g uterus)” value ([8]; per g uterus) was 0.88 ± 0.01 Fold Increase over control and the “Uterine Peroxidase Activity (Absorbance/mg protein)” value ([8]; per mg protein) was 0.99 ± 0.01 Fold Increase over control. The “Uterine Peroxidase Activity (Absorbance/uterus)” value ([8]; per uterus) was 0.57 ± 0.01 Fold Increase over control, the liver morphology [9] was “not accompanied by any significant changes” and the liver/body weight ratios [9] was “not accompanied by any significant changes”. The “Tumor Weight” value ([10]; 0.4 mg/kg/day each, control 3.82 ± 1.18) was 1.68 ± 0.53 g, the “Tumor Wt (% Control)” value ([10]; 0.4 mg/kg/day each, control 100 ± 27.7) was 43.9 ± 12.8 % Control and the “Final Tumor Volume (% Control)” value ([10]; 0.4 mg/kg/day each, control 100 ± 31.5) was 33.6 ± 11.2 % Control. The “Final Tumor Volume” value ([10]; 0.4 mg/kg/day each, control 2734 ± 956) was 918 ± 305 mm^3, the “% Inhibition tumor volume” value [10, 22] was 66.4% and the “% Inhibition tumor weight” value [10, 22] was “NS decrease”. For the same molecule, the “Uterine wet weight (% body weight)” value ([11]; control 0.0583 ± 0.0055) was 0.0454 % body weight, the “Uterine wet weight” value ([11]; control 0.171 ± 0.15) was 0.131 g and the “induction of hepatic CYP1A1-dependent activity” value [12] was “not accompanied by any significant changes”. The “Uterine Peroxidase Assay (Abs/g uterus)” value ([13]; per g uterus) was 1.14 ± 0.02 Fold Increase over Control, the “Uterine Peroxidase Assay (Abs/mg protein)” value ([13]; per mg protein) was 1.05 ± 0.02 Fold Increase over Control and the “Uterine Peroxidase Assay (Abs/uterus)” value ([13]; per uterus) was 1.56 ± 0.03 Fold Increase over Control. For the same molecule, the “Rat weight at start of treatments” value ([14]; Table 7, baseline, control 255 ± 3) was 257 ± 4 g, the “Spleen weight (% body weight)” value ([14]; Table 7, control 0.289 ± 0.018) was 0.265 ± 0.014 % body weight and the “Kidney weight (% body weight)” value ([14]; Table 7, control 0.334 ± 0.010) was 0.352 ± 0.015 % body weight. For the same molecule, the “Heart weight (% body weight)” value ([14]; Table 7, control 0.360 ± 0.010) was 0.356 ± 0.012 % body weight, the “Rat weight prior to euthanasia” value ([14]; Table 7, control 295 ± 11) was 289 ± 7 g and the “nuclear and cytosolic progesterone receptor (PR) binding” value [15] was “dose-dependent decrease”. For the same molecule, the “Uterine Wt.” value ([16]; 0.4 mg/kg/day each, 20 days, control 0.212 ± 0.017) was 0.230 ± 0.037 % BW, the “Spleen Wt.” value ([16]; 0.4 mg/kg/day each, 20 days, control 0.257 ± .022) was 0.255 ± 0.017 % BW and the Kidney weight ([16]; 0.4 mg/kg/day each, 20 days, control 0.349 ± 0.007) was 0.361 ± 0.016 % BW. The Liver weight ([16]; 0.4 mg/kg/day each, 20 days, control 3.13 ± 0.12) was 3.49 ± 0.16 % BW, the “Final Body Weight” value ([16]; 0.4 mg/kg/day each, 20 days, control 250 ± 5) was 247 ± 4 g and the Heart weight ([16]; rat, in vivo) was 0.405 ± 0.10 % BW. For the same molecule, the “Uterine cytosolic PR levels (fmol/mg protein)” value ([17]; control 308 ± 142) was 338 ± 31 fmol/mg protein, the “Uterine cytosolic PR levels (fmol/uterus)” value ([17]; control 1100 ± 508) was 1925 ± 177 fmol/uterus and the “Uterine cytosolic PR levels (fmol/g uterus)” value ([17]; control 8368 ± 3868) was 10693 ± 986 fmol/g uterus. For the same molecule, the “potency as inducer of hepatic CYP1A1 relative to TCDD (times less potent)” value ([18]; less potent than TCDD, same animals) was > 157,000 times, the “induction of CYP1A1” value ([18]; result in words) was “weak inducer of CYP1A1” and the “E2-induced hypertrophy, peroxidase activity, cytosolic ER and PR binding, EGF receptor and c-fos mRNA levels” value ([19]; rat uterus) was “inhibited”. For the same molecule, the “effect on TCDD-induced antiestrogenic activity” value ([19]; rat uterus) was “did not inhibit”, the “antiestrogenicity in the rat uterus” value ([19]; result in words) was “antiestrogen in the rat uterus” and the EROD activity ([20]; 20 days, control 118 ± 40) was 140 ± 32 pmol/mg/min. The “induction of hepatic EROD activity” value ([20]; result in words) was “did not induce”, the Dry bone weight ([21]; control 0.180 ± 0.005) was 0.183 ± 0.003 % body weight and the Wet bone weight ([21]; control 0.347 ± 0.009) was 0.341 ± 0.008 % body weight. It also gave a Bone length index ([21]; control 12.1 ± 0.4) of 12.17 ± 0.3 mm/body weight × 100.

From patent US6136845A (The Texas A&M University System, priority 1998, dated 2000)
